Laboratory results as given in PubChem BioAssay (NCI).
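1) Cells in 96-well plates. 2) Compound, 48 h, 5 concentrations. 3) Linear interpolation between surrounding doses. 4) Unreached endpoint = highest concentration. At the GI50, growth is halved. TGI denotes the concentration required for complete inhibition of growth.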

Columns and labels:
Assay in all cases: NCI tumour cell line growth inhibition, 48 h
[1] = tested on: MCF7 breast
[2] = tested on: K-562 leukemia
[3] = tested on: M14 melanoma
[4] = tested on: UACC-62 melanoma
[5] = tested on: SW-620 colon
[6] = tested on: HT29 colon
[7] = tested on: MDA-MB-435
[8] = tested on: A498 renal
[9] = tested on: UO-31 renal
[10] = tested on: SK-OV-3 ovarian

| SMILES | GI50 [1] [µM] | TGI [1] [µM] | GI50 [2] [µM] | TGI [2] [µM] | GI50 [3] [µM] | TGI [3] [µM] | GI50 [4] [µM] | TGI [4] [µM] | GI50 [5] [µM] | TGI [5] [µM] | GI50 [6] [µM] | GI50 [7] [µM] | TGI [7] [µM] | GI50 [8] [µM] | TGI [8] [µM] | GI50 [9] [µM] | TGI [9] [µM] | GI50 [10] [µM] | TGI [10] [µM] | TGI [6] [µM] |
| --- | --- | --- | --- | --- | --- | --- | --- | --- | --- | --- | --- | --- | --- | --- | --- | --- | --- | --- | --- | --- |
| COc1cc(C(=O)N/N=C/c2ccc(N(C)C)cc2)cc(OC)c1OC | 0.34 | > 100 | 0.353 | > 100 | 0.335 | > 100 | 0.417 | > 100 | 0.424 | > 100 | 0.347 | 0.0743 | 0.307 | 0.172 | 0.799 | 0.656 | > 100 | 0.478 | > 31.1 |  |
| OCc1ccc(N2CCc3ccccc3C2)cc1Cl | < 0.01 | 55.3 | < 0.0224 | 19 | 34.1 | > 100 | < 0.01 | 0.144 | < 0.0218 | > 100 | < 0.02 | 23.2 | > 75.8 | < 0.015 | 0.0355 | 8.28 | 55.8 | 0.754 | 8.95 | > 55.4 |
| CN(Cc1cc(Cl)cc(Cl)c1O)Cc1c(O)ccc2ccccc12 |  | 33.2 |  | 61 |  | 39.2 |  | 29.3 |  | > 100 |  |  | 41.4 |  | 31 |  | 34.7 |  | 36.8 | > 100 |
| CN(C)c1ccc(/C=C/C2=[N+](C)c3ccccc3C2(C)C)cc1 | 0.382 | 8.11 | 0.512 | > 100 | 0.75 | 14.4 | 1.36 | 19.2 | 0.379 | 17.8 | 0.293 | 0.467 | 11.7 | 8.86 | 74.9 | 2.61 | 83.3 | 0.729 | 4.19 | 2.53 |
| CC(=O)OC12COC1CC(O)C1(C)C(=O)C(O)C3=C(C)C(O)CC(O)(C(OC(=O)c4ccccc4)C21)C3(C)C (stereo not given) |  | > 100 |  | > 100 |  | > 100 |  | > 100 | 2.48 | > 100 |  |  | 1.48 |  | > 100 |  | > 100 |  | > 100 | > 44.8 |
| COc1ccc(/C=C/C(=O)c2ccc(OC)c(OC)c2)cc1O | 4.58 | 16.2 | 3.31 | > 100 | 10.9 | 23.3 | 11.2 | 24.3 | 3.09 | 12.8 | 5.91 | 5.22 | 23.5 | 4.84 | 20.3 | 5.83 | 19.2 | 6.51 | 45 | 20.5 |
| CCN(CC)C1CCC(Nc2c(C(C)=O)cnc3ccc(-c4ccc(O)c(Cl)c4)cc23)CC1 (stereo not given) | 0.229 | 1.42 | 0.125 | 5.72 | 0.468 | 15.4 | 3.47 | 25.4 | 0.933 | 4.38 | 1.64 | 0.651 | 10.5 | 2.19 | 6.84 | 0.425 | > 36.8 | 0.931 | > 44.5 | 3.51 |
